According to paper PMC10517971, “An inverse agonist of orphan receptor GPR61 acts by a G protein-competitive allosteric mechanism” (Nature Communications, 2023):
Where “and” joins values, the source holds several entries; their conditions need not be identical. Equal values may be shown once. Read-outs that look alike come from different tables or passages of the source.

Tests used:
human GPR61 V288A = target: T1, human GPR61 V288A (Homo sapiens, UniProt Q9BZJ8, V288A); experiment: Functional cAMP assay (HTRF), transiently transfected CHO-K1 cells, GPR61 V288A mutant; format: cell-based; details: for IC50: Fig. 3e table
T1 construct: expressed in transfected cells; host or cells: CHO-K1, transient (Fugene6)
T1 sequence (Q9BZJ8 whole entry V288A): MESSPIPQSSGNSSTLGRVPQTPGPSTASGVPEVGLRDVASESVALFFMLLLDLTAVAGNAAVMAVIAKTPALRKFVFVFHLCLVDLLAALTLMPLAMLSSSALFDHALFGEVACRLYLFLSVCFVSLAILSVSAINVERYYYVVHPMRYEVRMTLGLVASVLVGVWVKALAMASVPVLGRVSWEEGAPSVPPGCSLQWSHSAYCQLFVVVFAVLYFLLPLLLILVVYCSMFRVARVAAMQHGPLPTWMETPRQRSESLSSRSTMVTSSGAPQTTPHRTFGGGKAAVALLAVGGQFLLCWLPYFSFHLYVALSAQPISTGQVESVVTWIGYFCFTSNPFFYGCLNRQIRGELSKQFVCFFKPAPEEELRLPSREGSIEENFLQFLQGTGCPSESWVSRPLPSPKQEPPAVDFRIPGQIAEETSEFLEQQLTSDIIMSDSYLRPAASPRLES
Source text: (§1) The human GPR61 (reference sequence NM_031936.4) cDNA was synthesized and subcloned into pcDNA5/FRT/TO (Thermo Fisher, Pittsburgh, PA). The pcDNA5/FRT/TO/ human GPR61 plasmid was then transfected into the Flp-In™-CHO Cell Line (Thermo Fisher, Pittsburgh, PA) and a doxycycline-inducible clonal cell line was selected (CHO TREx hGPR61 WT). Sequences encoding untagged and HiBit/hemagglutinin (HA)-tagged versions of the wild-type human GPR61 were synthesized and cloned into pcDNA3.1. The HiBit ([…]) and HA ([…]) tags were sequentially included after the N-terminal initiator methionine. Four single amino acid substitutions (N137A, R140A, V288A, N345A) were then introduced in the untagged and tagged human GPR61 constructs using site-specific mutagenesis. The nucleotide sequences of all receptor constructs were confirmed by automated DNA sequencing.
Parental CHO-K1 cells were maintained at 37 °C in a humidified environment (5% CO2) and grown in Dulbecco’s Modified Eagle Medium (DMEM) F-12 media (Gibco, 11320033) supplemented with 10% FBS, 1% Glutamax (Gibco, 35050061) and 100units/ml penicillin and streptomycin (Gibco, 15140122. Cells were dissociated using a cell dissociation solution (Gibco, 13151-014), counted, and resuspended in complete culture media without antibiotics. Cells were then transiently transfected using Fugene6 (Promega) in a 384-well plate format (Corning, 3570). For each well, 7500 cells were transfected with 5 ng of receptor plasmid, 20 ng of carrier DNA (Promega, PAE4881) and 0.075 μl Fugene6 in a final volume of 25 μl. Fugene6 and DNA were separately diluted in Optimem media (Gibco, 31985070) (1.25 μl final volume each). Fugene6 and DNA solutions were then combined and incubated for 15 min at room temperature. The cell containing solution (22.5 μl) was then added and transfection reactions were mixed and transferred to the assay plate. Following 24 h incubation at 37 °C, wells were rinsed once and 25 μl of HiBit assay buffer (Phenol-red free DMEM F-12 media containing 2% FBS) was added per well. Surface and total receptor expression was measured separately by adding 25 μl per well of the extracellular (Promega, PRN2421) and lytic (Promega, PRN3040) assay solutions, respectively. Plates were incubated for 10 min at room temperature on a shaker and luciferase activity was measured using an EnVision plate reader (Perkin Elmer, Chicago, IL). Expression was normalized as percent of the wild-type receptor signal. Statistical comparisons of expression levels observed with WT versus GPR61 mutants were made by one-way analysis of variance with Dunnett’s post hoc test.
A homogeneous Time-Resolved Fluorescence (HTRF) assay (Perkin Elmer, Dynamic2 kit #) was used to assess receptor basal and inverse agonist activity at human GPR61, GPR62, and GPR101. […]

human GPR61 N345A = target: T2, human GPR61 N345A (Homo sapiens, UniProt Q9BZJ8, N345A); experiment: Functional cAMP assay (HTRF), transiently transfected CHO-K1 cells, GPR61 N345A mutant; format: cell-based; details: at up to 10 μM concentration
T2 construct: expressed in transfected cells; host or cells: CHO-K1, transient (Fugene6)
T2 sequence (Q9BZJ8 whole entry N345A): as the sequence (Q9BZJ8 whole entry V288A) above, with A288V, N345A counted along it
Source text: as §1, with “Four single amino acid substitutions (N137A, R140A, V288A, N345A) were then introduced in the untagged and tagged human GPR61 constructs using site-specific mutagenesis. The nucleotide sequences of all receptor constructs were confirmed by automated DNA sequencing.” left out
Parental CHO-K1 cells were maintained at 37 °C in a humidified environment (5% CO2) and grown in Dulbecco’s Modified Eagle Medium (DMEM) F-12 media (Gibco, 11320033) supplemented with 10% FBS, 1% Glutamax (Gibco, 35050061) and 100units/ml penicillin and streptomycin (Gibco, 15140122. Cells were dissociated using a cell dissociation solution (Gibco, 13151-014), counted, and resuspended in complete culture media without antibiotics. Cells were then transiently transfected using Fugene6 (Promega) in a 384-well plate format (Corning, 3570). For each well, 7500 cells were transfected with 5 ng of receptor plasmid, 20 ng of carrier DNA (Promega, PAE4881) and 0.075 μl Fugene6 in a final volume of 25 μl. […]

human GPR61 = target: T3, human GPR61 (Homo sapiens, UniProt Q9BZJ8); experiment: Functional cAMP assay (HTRF), stable CHO TREx human GPR61 cells; format: cell-based
T3 construct: expressed in transfected cells; host or cells: CHO-K1, transient (Fugene6)
T3 sequence (Q9BZJ8 whole entry): as the sequence (Q9BZJ8 whole entry V288A) above, with A288V counted along it
Source text: as §1
A homogeneous Time-Resolved Fluorescence (HTRF) assay (Perkin Elmer, Dynamic2 kit #) was used to assess receptor basal and inverse agonist activity at human GPR61, GPR62, and GPR101. For routine inverse agonist screening frozen CHO TREx human GPR61, GPR62 and GPR101 cells were used. […] Data were analyzed using the ratio of fluorescence intensity at 620 and 665 nm for each well, extrapolated from the cAMP standard curve to express data as nM cAMP for each well. […]

Human PDE1B1 = Human PDE1B1 (Homo sapiens, UniProt Q01064); experiment: Phosphodiesterase Assay (SPA); format: biochemical
Sequence of Human PDE1B1 (Q01064 whole entry): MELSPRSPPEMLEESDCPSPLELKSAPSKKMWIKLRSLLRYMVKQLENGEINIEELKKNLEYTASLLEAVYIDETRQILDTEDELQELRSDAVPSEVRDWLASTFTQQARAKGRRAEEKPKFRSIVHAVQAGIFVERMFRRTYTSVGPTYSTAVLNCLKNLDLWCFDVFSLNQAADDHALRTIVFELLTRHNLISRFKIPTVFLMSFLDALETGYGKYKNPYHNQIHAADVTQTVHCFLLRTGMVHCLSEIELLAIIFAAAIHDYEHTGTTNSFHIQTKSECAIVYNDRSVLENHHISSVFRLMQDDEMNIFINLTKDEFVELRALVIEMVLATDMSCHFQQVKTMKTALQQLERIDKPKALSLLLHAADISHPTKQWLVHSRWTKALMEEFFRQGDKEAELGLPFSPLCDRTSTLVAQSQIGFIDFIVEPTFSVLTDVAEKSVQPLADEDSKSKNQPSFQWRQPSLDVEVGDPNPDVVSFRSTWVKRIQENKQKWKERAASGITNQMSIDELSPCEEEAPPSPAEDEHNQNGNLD

Human PDE2A1 = Human PDE2A1 (Homo sapiens, UniProt O00408); experiment: Phosphodiesterase Assay (SPA); format: biochemical
Sequence of Human PDE2A1 (O00408 1-920 isoform O00408-2): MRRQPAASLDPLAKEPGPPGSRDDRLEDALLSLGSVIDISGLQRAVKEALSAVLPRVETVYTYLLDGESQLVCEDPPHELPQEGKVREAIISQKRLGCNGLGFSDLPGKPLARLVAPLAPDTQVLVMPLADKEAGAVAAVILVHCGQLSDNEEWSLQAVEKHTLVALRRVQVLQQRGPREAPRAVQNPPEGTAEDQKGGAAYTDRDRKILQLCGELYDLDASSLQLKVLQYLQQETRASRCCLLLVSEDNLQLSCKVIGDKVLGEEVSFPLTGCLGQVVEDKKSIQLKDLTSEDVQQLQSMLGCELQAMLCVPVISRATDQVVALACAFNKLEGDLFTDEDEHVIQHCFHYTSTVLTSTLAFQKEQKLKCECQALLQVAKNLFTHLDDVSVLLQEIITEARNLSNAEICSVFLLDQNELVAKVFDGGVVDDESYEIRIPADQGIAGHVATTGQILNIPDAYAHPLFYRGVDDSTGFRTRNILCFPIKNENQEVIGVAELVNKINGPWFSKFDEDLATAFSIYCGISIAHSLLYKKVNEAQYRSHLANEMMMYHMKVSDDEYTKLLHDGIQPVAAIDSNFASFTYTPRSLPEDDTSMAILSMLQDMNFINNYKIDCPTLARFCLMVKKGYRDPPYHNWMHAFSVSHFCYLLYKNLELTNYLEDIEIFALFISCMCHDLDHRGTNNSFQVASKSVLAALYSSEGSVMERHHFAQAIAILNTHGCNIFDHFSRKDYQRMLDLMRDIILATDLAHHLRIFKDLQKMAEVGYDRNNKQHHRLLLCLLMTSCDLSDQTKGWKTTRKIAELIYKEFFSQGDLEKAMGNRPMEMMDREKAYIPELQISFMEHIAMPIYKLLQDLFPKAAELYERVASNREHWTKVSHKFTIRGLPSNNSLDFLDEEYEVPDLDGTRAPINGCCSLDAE

For CCOc1cc(C)nc(N(CCOC)S(=O)(=O)c2ccc(NCc3c(F)cncc3F)nc2OC)n1 [Compound 1], the IC50 (human GPR61 V288A; HiBit-tagged, read-out: GPR61 cAMP IC50 (95% CI), V288A HiBit-tagged) was 0.4 µM, the IC50 (human GPR61 V288A; untagged, read-out: GPR61 cAMP IC50 (95% CI), V288A Untagged) was 0.406 µM and the “cAMP response (Figure 3e source data)” value (human GPR61 V288A; HiBit V288A, concentration -6) was 0.67 and 0.63 and 0.87 and 1.10 and 0.64 and 0.60. For the same compound, the “sensitivity of the receptor to inverse agonism in the cAMP assay” value (human GPR61 V288A; V288A mutant vs wild-type) was “less sensitive”, the “sensitivity of the receptor to the compound in the cAMP assay” value (human GPR61 N345A) was “no sensitivity” and the “potency against GPR61 relative to GPR62 and GPR101” value (human GPR61; GPR61 vs GPR62 and GPR101, peer review reply) was “roughly 1000 fold”. For the same compound, the IC50 (human GPR61; stable CHO TREx cells, Supplementary Table 2) was 0.021 µM, the IC50 (Human PDE1B1) was over 40 µM and the IC50 (Human PDE2A1) was over 200 µM.
